Source: US10383861B2, “3-(1H-pyrrolo[2,3-C]pyridin-2-yl)-1H-pyrazolo[3,4-C]pyridines and therapeutic uses thereof” (Samumed, LLC, priority 2015, dated 2019)

Experiments:
Type in all cases: cell-based
IL-6 = IL-6 inhibition in LPS-stimulated THP-1 cells (HTRF); conditions: Homo sapiens; for inhibition at 10 µM: THP-1, read-out: percent inhibition at 10 μM; for EC50: THP-1 cells, LPS 500 ng/mL, 22 hours, IL6 HTRF
Protocol: THP-1 cells were cultured in basal media with 1% FBS for 24 hours before the start of the assay. […] THP-1 cells were plated at 5000 cells/well in the 384-well plates and incubated at 37° C. for 2 h. 500 ng/mL of LPS was added after 2 hours and cells were incubated for another 22 hours at 37° C. Plates were spun in a centrifuge for 1 minute at […] and a mixture of anti-IL6 XL665, and anti-IL6 Cryptate diluted in reconstitution buffer (Cisbio Inc.) was added to each well. Following incubation for 3 hrs at room temperature, Homogeneous Time-Resolved Fluorescence (HTRF) was measured using the Envision (Perkin Elmer) at 665 nm and […]. The ratio of fluorescence at 665 nm to 620 nm was used as a readout for IL6 quantification. All samples were processed in duplicate. Readings were normalized to DMSO treated cells and normalized activities were utilized for EC50 calculations using the dose-response log (inhibitor) vs. response -variable slope (four parameters) nonlinear regression feature available in GraphPad Prism 5.0 (or Dotmatics).

SW480 colon cancer cells = assay: Cell viability assay (CellTiter-Blue) in SW480 colon cancer cells; conditions: Homo sapiens; for EC50: 96 h, SW480 cell viability, four days, CellTiter-Blue; for inhibition at 10 µM: SW480, read-out: percent inhibition at 10 μM
Protocol: Representative compounds were screened using the following assay procedure to assess the effect on cell viability as described below.
Approximately 2×10^3 SW480 colon cancer cells were seeded into each well and allowed to incubate in the presence or absence of compound for four days at 37° C./5% CO2. Eight replicates of DMSO-treated cells served as controls and cells treated with compound were performed in duplicate.
After incubation, 20 μL of CellTiter-Blue (Promega) was added to each well allowed to incubate for approximately 3 hours. This reagent was a buffered solution which contains resazurin, metabolically active cells were able to reduce rezarurin (blue) into resorufin (pink) which was highly fluorescent. This measured fluorescence was used as a readout for cell viability.

Wnt activity = Wnt activity screening assay, Sp5-Luc reporter gene in SW480 cells; conditions: Homo sapiens; for EC50: Sp5-Luc reporter, SW480 cells, overnight incubation; for inhibition at 10 µM: SW480, read-out: percent inhibition at 10 μM
From the text: The screening assay for Wnt activity is described as follows. Reporter cell lines can be generated by stably transducing cancer cell lines (e.g., colon cancer) or primary cells (e.g., IEC-6 intestinal cells) with a lentiviral construct that includes a Wnt-responsive promoter driving expression of the firefly luciferase gene.
SW480 colon carcinoma cells were transduced with a lentiviral vector expressing luciferase with a human Sp5 promoter consisting of a sequence of eight TCF/LEF binding sites. SW480 cells stably expressing the Sp5-Luc reporter gene and a hygromycin resistance gene were selected by treatment with 150 μg/mL of hygromycin for 7 days. These stably transduced SW480 cells were expanded in cell culture and used for all further screening activities. […] For Sp5-Luc reporter gene assays, the cells were plated at 4,000 cells/well in 384-well plates with medium containing 1% fetal bovine serum and incubated overnight at 37° C. and 5% CO2. Following incubation, 20 μl of BrightGlo luminescence reagent (Promega) was added to each well of the 384-well assay plates. The plates were placed on an orbital shaker for 2 min and then luminescence was quantified using the Envision (Perkin Elmer) plate reader. Readings were normalized to DMSO only treated cells, and normalized activities were utilized for EC50 calculations using the dose-response log (inhibitor) vs. response -variable slope (four parameters) nonlinear regression feature available in GraphPad Prism 5.0 (or Dotmatics).

[1] = test system: primary human mesenchymal stem cells (hMSCs); assay: Induction of chondrogenesis in hMSCs (nodule count, Rhodamine B/Nile Red); conditions: 6 days; for EC50: concentration required to induce 50% levels of chondrogenesis vs TGF-β3, read-out: Conc (nM) of 50% TGF-β3 activity; for Emax: relative to TGF-β3 (10 ng/mL) positive control, read-out: Max. Activity as % TGF-β3 activity
From the text: Representative compounds were screened using primary human mesenchymal stem cells (hMSCs) to determine their ability to induce chondrogenesis (process by which cartilage is developed).
Primary human mesenchymal stem cells (hMSCs) were purchased from Lonza (Walkersville, Md.) and expanded in Mesenchymal Stem Cell Growth Media (Lonza). Cells between passage 3 and 6 were used for the experiments.
To image chondrogenic nodules, the cells were fixed using 4% formaldehyde (Electron Microscopy Sciences), and stained with 2 μg/mL Rhodamine B (Sigma-Aldrich) and 20 μM Nile Red (Sigma-Aldrich) [Johnson K., et.al, A Stem Cell-Based Approach to Cartilage Repair, Science, (2012). […] Number of nodules in each well was normalized to the average of 3 DMSO treated wells on the same plate using Excel (Microsoft Inc.). The normalized averages (fold change over DMSO) of 3 replicate wells for each compound concentration were calculated. Due to solubility limitations of some of the compounds, curve fitting was incomplete leading to inaccurate EC50 determinations.
Using TGF-β3 as a positive control, the concentration of representative compounds required to induce 50% levels of chondrogenesis is reported. In addition, the maximum activity of each compound and the respective dose that each compound reached maximum chondrogenesis activity is reported.

[2] = test system: primary human fibroblasts derived from IPF patients (LL29 cells); assay: Inhibition of the fibrotic process: αSMA staining in TGF-β1 treated LL29 fibroblasts; conditions: Fibroblast; for EC50: 96 h, LL29 cells, TGF-β1 20 ng/mL, 4 days, % αSMA positive cells; for inhibition at 10 µM: read-out: percent inhibition at 10 μM
Protocol: Representative compounds were screened using primary human fibroblasts (derived from IPF patients) treated with TGF-β1 to determine their ability to inhibit the fibrotic process.
LL29 cells are plated at 1,500 cells/well in 80 μL/well F12 medium supplemented with 1% Fetal Bovine Serum. […] Wells treated with TGF-β1 and containing DMSO were used as controls. […] Following incubation for 4 days, SYTOX green nucleic acid stain (Life Technologies [Thermo Fisher Scientific]) was added to the wells at a final concentration of 1 μM and incubated at room temperature for 30 min.

Row | Structure (SMILES) | EC50 (IL-6) | EC50 (SW480 colon cancer cells) | EC50 (Wnt activity) | EC50 [1] | inhibition at 10 µM (IL-6) | Emax [1] | EC50 [2] | inhibition at 10 µM (SW480 colon cancer cells) | inhibition at 10 µM [2] | inhibition at 10 µM (Wnt activity)
1 | Fc1cccc(-c2cncc3[nH]c(-c4n[nH]c5cnc(-c6cccnc6)cc45)cc23)c1 [Compound 4, 3-(4-(3-Fluorophenyl)-1H-pyrrolo[2,3-c]pyridin-2-yl)-5-(pyridin-3-yl)-1H-pyrazolo[3,4-c]pyridine] | > 10 µM | 0.734 µM | 890 nM | 2700 nM | 26.8% | 64% | 211 nM | – | – | –
2 | Fc1cccc(-c2cncc3[nH]c(-c4n[nH]c5cnc(-c6cncc(CN7CCCC7)c6)cc45)cc23)c1 [Compound 14, 3-(4-(3-Fluorophenyl)-1H-pyrrolo[2,3-c]pyridin-2-yl)-5-(5-(pyrrolidin-1-ylmethyl)pyridin-3-yl)-1H-pyrazolo[3,4-c]pyridine] | > 10 µM | 5.69 µM | 3970 nM | 100 nM | 48.2% | 81% | 3540 nM | – | – | –
3 | Fc1ccc(-c2cncc3[nH]c(-c4n[nH]c5cnc(-c6cncc(CN7CCC(F)(F)C7)c6)cc45)cc23)cc1 [Compound 54, 5-(5-((3,3-Difluoropyrrolidin-1-yl)methyl)pyridin-3-yl)-3-(4-(4-fluorophenyl)-1H-pyrrolo[2,3-c]pyridin-2-yl)-1H-pyrazolo[3,4-c]pyridine] | > 10 µM | > 10 µM | 3260 nM | 100 nM | 11.2% | 78% | 9980 nM | 38.6% | – | –
4 | CN(C)Cc1cncc(-c2cc3c(-c4cc5c(-c6ccccc6F)cncc5[nH]4)n[nH]c3cn2)c1 [Compound 69, 1-(5-(3-(4-(2-Fluorophenyl)-1H-pyrrolo[2,3-c]pyridin-2-yl)-1H-pyrazolo[3,4-c]pyridin-5-yl)pyridin-3-yl)-N,N-dimethylmethanamine] | > 10 µM | 6.31 µM | > 10000 nM | 2700 nM | 24.7% | 54% | 9720 nM | – | – | 49.2%
5 | c1cncc(-c2cc3c(-c4cc5c(-c6cccnc6)cncc5[nH]4)n[nH]c3cn2)c1 [Compound 88, 5-(Pyridin-3-yl)-3-(4-(pyridin-3-yl)-1H-pyrrolo[2,3-c]pyridin-2-yl)-1H-pyrazolo[3,4-c]pyridine] | > 10 µM | > 10 µM | 1340 nM | 100 nM | 36.6% | 76% | > 10000 nM | 37.4% | 82.9% | –
6 | FC1(F)CCN(Cc2cncc(-c3cc4c(-c5cc6c(-c7cccnc7)cncc6[nH]5)n[nH]c4cn3)c2)C1 [Compound 110, 5-(5-((3,3-Difluoropyrrolidin-1-yl)methyl)pyridin-3-yl)-3-(4-(pyridin-3-yl)-1H-pyrrolo[2,3-c]pyridin-2-yl)-1H-pyrazolo[3,4-c]pyridine] | 0.688 µM | 2.14 µM | 914 nM | 2700 nM | – | 54% | 534 nM | – | – | –
7 | Nc1cncc(-c2cc3c(-c4cc5c(-c6ccncc6)cncc5[nH]4)n[nH]c3cn2)c1 [Compound 115, 5-(3-(4-(Pyridin-4-yl)-1H-pyrrolo[2,3-c]pyridin-2-yl)-1H-pyrazolo[3,4-c]pyridin-5-yl)pyridin-3-amine] | > 10 µM | > 10 µM | > 10000 nM | 10 nM | 4.3% | 52% | 3740 nM | 22% | – | 14.2%

More lines, main results first:

Row | EC50 (IL-6) | EC50 (SW480 colon cancer cells) | EC50 (Wnt activity) | EC50 [1] | Structure (SMILES) | inhibition at 10 µM (IL-6) | Emax [1] | EC50 [2] | inhibition at 10 µM (SW480 colon cancer cells) | inhibition at 10 µM [2] | inhibition at 10 µM (Wnt activity)
8 | 8.26 µM | 4.34 µM | 1820 nM | – | CC(C)C(=O)Nc1cncc(-c2cc3c(-c4cc5c(-c6cccc(F)c6)cncc5[nH]4)n[nH]c3cn2)c1 [Compound 9, N-(5-(3-(4-(3-Fluorophenyl)-1H-pyrrolo[2,3-c]pyridin-2-yl)-1H-pyrazolo[3,4-c]pyridin-5-yl)pyridin-3-yl)isobutyramide] | – | 42% | 1790 nM | – | – | –
9 | 3.06 µM | 1.1 µM | 584 nM | 10 nM | Fc1cccc(-c2cncc3[nH]c(-c4n[nH]c5cnc(-c6cncnc6)cc45)cc23)c1 [Compound 27, 3-(4-(3-Fluorophenyl)-1H-pyrrolo[2,3-c]pyridin-2-yl)-5-(pyrimidin-5-yl)-1H-pyrazolo[3,4-c]pyridine] | – | 56% | 432 nM | – | – | –
10 | 0.975 µM | 0.264 µM | 555 nM | 900 nM | Fc1ccc(-c2cncc3[nH]c(-c4n[nH]c5cnc(-c6cncnc6)cc45)cc23)cc1 [Compound 55, 3-(4-(4-Fluorophenyl)-1H-pyrrolo[2,3-c]pyridin-2-yl)-5-(pyrimidin-5-yl)-1H-pyrazolo[3,4-c]pyridine] | – | 81% | > 10000 nM | – | 56.4% | –
11 | 3.61 µM | 3.4 µM | 1630 nM | – | Nc1cncc(-c2cc3c(-c4cc5c(-c6ccccc6F)cncc5[nH]4)n[nH]c3cn2)c1 [Compound 59, 5-(3-(4-(2-Fluorophenyl)-1H-pyrrolo[2,3-c]pyridin-2-yl)-1H-pyrazolo[3,4-c]pyridin-5-yl)pyridin-3-amine] | – | 16% | 1770 nM | – | – | –
12 | 3.66 µM | > 10 µM | 9140 nM | – | CCNCc1cncc(-c2cc3c(-c4cc5c(-c6ccccc6F)cncc5[nH]4)n[nH]c3cn2)c1 [Compound 62, N-((5-(3-(4-(2-Fluorophenyl)-1H-pyrrolo[2,3-c]pyridin-2-yl)-1H-pyrazolo[3,4-c]pyridin-5-yl)pyridin-3-yl)methyl)ethanamine] | – | 21% | 2640 nM | 44.4% | – | –
13 | 1.06 µM | > 10 µM | 3730 nM | 10 nM | CCNCc1cncc(-c2cc3c(-c4cc5c(-c6cccnc6)cncc5[nH]4)n[nH]c3cn2)c1 [Compound 90, N-((5-(3-(4-(Pyridin-3-yl)-1H-pyrrolo[2,3-c]pyridin-2-yl)-1H-pyrazolo[3,4-c]pyridin-5-yl)pyridin-3-yl)methyl)ethanamine] | – | 68% | > 10000 nM | 13% | 0% | –
